Laboratory results taken from ChEMBL document CHEMBL1145804, “Synthesis and characterization of the first fluorescent antagonists for human 5-HT4 receptors” (J Med Chem, 2003).

Assays:
[1] = target: T1, 5-hydroxytryptamine receptor 4 (Homo sapiens, UniProt Q13639); experiment: Binding affinity towards cloned human 5-hydroxytryptamine 4E receptor expressed in C6 glial cells using [3H]GR-113808 as radioligand; format: cell-based
[2] = target: T1, 5-hydroxytryptamine receptor 4; experiment: Antagonist activity (inhibition of 5-HT-stimulated cAMP synthesis) of compound at cloned human 5-hydroxytryptamine 4E receptor expressed in C6 glial cells by Schild analysis

T1 sequence (Q13639 whole entry): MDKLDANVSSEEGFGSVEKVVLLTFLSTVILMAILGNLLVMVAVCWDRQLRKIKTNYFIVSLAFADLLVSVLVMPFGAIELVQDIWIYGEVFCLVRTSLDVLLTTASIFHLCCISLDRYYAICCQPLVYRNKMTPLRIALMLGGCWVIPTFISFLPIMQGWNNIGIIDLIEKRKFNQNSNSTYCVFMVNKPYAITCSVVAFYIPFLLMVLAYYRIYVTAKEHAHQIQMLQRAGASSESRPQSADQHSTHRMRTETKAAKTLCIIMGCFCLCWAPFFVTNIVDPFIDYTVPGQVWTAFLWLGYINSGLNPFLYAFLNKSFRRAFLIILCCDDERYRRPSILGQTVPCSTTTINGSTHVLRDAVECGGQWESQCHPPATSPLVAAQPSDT

Row | SMILES | Ki [1] | Kb [2]
1 | COc1cc(N)c(Cl)cc1C(=O)OCCN1CCC(CN2C(=O)c3cccc4c(N)ccc(c34)C2=O)CC1 | 64 nM | 9 nM
2 | COc1cc(N)c(Cl)cc1C(=O)OCCN1CCC(CNS(=O)(=O)c2cccc3c(N(C)C)cccc23)CC1 | 7 nM | 5.7 nM
3 | COc1cc(N)c(Cl)cc1C(=O)OCCN1CCC(CCNS(=O)(=O)c2cccc3c(N(C)C)cccc23)CC1 | 77 nM | –
4 | COc1cc(N)c(Cl)cc1C(=O)OCCN1CCN(C(=O)CCCCCCCCCCNS(=O)(=O)c2cccc3c(N(C)C)cccc23)CC1 | 96 nM | –
5 | COc1cc(N)c(Cl)cc1C(=O)OCCN1CCC(CNc2ccc([N+](=O)[O-])c3n[o+][n-]c23)CC1 | 7.5 nM | –
6 | COc1cc(N)c(Cl)cc1C(=O)OCCN1CCC(CN2C(=O)c3cccc4c(N(C)C)ccc(c34)C2=O)CC1 | 181 nM | –
7 | COc1cc(N)c(Cl)cc1C(=O)OCCN1CCC(NS(=O)(=O)c2cccc3c(N(C)C)cccc23)CC1 | 264 nM | –
8 | COc1cc(N)c(Cl)cc1C(=O)OCCN1CCC(CCCCN2C(=O)c3cccc4c(N(C)C)ccc(c34)C2=O)CC1 | 59 nM | –
9 | COc1cc(N)c(Cl)cc1C(=O)OCCN1CCN(C(=O)CCCNS(=O)(=O)c2cccc3c(N(C)C)cccc23)CC1 | 183 nM | –
10 | COc1cc(N)c(Cl)cc1C(=O)OCCN1CCN(C(=O)CCCCCCCNS(=O)(=O)c2cccc3c(N(C)C)cccc23)CC1 | 31 nM | –
11 | COc1cc(N)c(Cl)cc1C(=O)OCCN1CCN(C(=O)CCCCCNS(=O)(=O)c2cccc3c(N(C)C)cccc23)CC1 | 180 nM | –
12 | COc1cc(N)c(Cl)cc1C(=O)OCCN1CCC(CCCCNS(=O)(=O)c2cccc3c(N(C)C)cccc23)CC1 | 24 nM | –
13 | COc1cc(N)c(Cl)cc1C(=O)OCCN1CCN(C(=O)CCNS(=O)(=O)c2cccc3c(N(C)C)cccc23)CC1 | 116 nM | –
14 | COc1cc(N)c(Cl)cc1C(=O)OCCN1CCC(CCCNS(=O)(=O)c2cccc3c(N(C)C)cccc23)CC1 | 32 nM | –
15 | COc1cc(N)c(Cl)cc1C(=O)OCCN1CCN(C(=O)CNS(=O)(=O)c2cccc3c(N(C)C)cccc23)CC1 | 1720 nM | –
16 | COc1cc(N)c(Cl)cc1C(=O)OCCN1CCC(CNc2ccc([N+](=O)[O-])c3nonc23)CC1 | – | 2.1 nM
